Laboratory results reported in US20260364080A1, “PYRAZOLO-PYRIMIDINONE COMPOUNDS FOR USE IN METHODS OF INHIBITING WEE1 A KINASE” (Acrivon Therapeutics, Inc., priority 2023, published 2026).

Columns and labels:
[1] = molecular target: T1, Myt1 kinase (recombinant PMYT-1) (Homo sapiens, UniProt Q99640); assay: Myt1 kinase binding assay (LanthaScreen Eu Kinase Binding Assay); details: 3 nM tracer 178, 2.5 nM PMYT-1, 1 nM Eu-labeled antibody; read-out: Myt1 kinase Binding IC50
T1 construct: full length PMYT-1 was expressed by baculovirus in insect cells; purchased Invitrogen A30984; host or cells: insect cells (baculovirus)
T1 sequence (Q99640 1-499): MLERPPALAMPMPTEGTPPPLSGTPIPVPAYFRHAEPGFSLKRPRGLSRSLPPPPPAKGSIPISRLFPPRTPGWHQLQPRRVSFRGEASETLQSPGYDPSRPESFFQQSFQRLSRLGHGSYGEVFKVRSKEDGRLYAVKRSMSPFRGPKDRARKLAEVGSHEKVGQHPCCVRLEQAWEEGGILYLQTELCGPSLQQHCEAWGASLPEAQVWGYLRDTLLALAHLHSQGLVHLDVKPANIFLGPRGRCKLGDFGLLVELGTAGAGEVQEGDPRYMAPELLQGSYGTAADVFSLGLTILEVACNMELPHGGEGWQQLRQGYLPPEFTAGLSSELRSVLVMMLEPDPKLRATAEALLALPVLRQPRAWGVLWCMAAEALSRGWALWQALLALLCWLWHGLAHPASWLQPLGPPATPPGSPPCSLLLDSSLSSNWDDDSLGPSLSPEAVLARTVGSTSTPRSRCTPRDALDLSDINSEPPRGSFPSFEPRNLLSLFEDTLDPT
Outline: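 The binding affinity of compounds for Myt1 kinase was measured with a LanthaScreen Europium (Eu) Kinase Binding Assay, a time-resolved FRET format in which test compounds compete against a labeled kinase tracer, and the results were expressed as IC50 values describing compound binding to Myt1.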

ACHN cells = assay: Cell Titer Glo viability assay, ACHN cells; assay type: cell-based; details: Homo sapiens, 144 h, absolute EC50
Outline: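 Cells grown in MEM with 10% FCS were seeded at 500 (A427), 400 (ACHN) or 250 (DAOY) per well and treated the next day with compound at 17 to 10 000 nM. Viability relative to untreated control was read at 144 h by CellTiter-Glo 2.0.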

[2] = molecular target: T2, recombinant human Wee1A kinase (Homo sapiens, UniProt P30291); assay: Wee1A kinase binding assay (LanthaScreen Eu time-resolved FRET); details: 30 nM tracer 178, 5 nM Wee1A kinase, 2 nM Eu-labeled antibody; 60 minutes at room temperature; read-out: Wee1A kinase Binding IC50
T2 construct: full length Wee1 kinase was expressed by baculovirus in insect cells; purchased Invitrogen PV3817; host or cells: insect cells (baculovirus)
T2 sequence (P30291 whole entry): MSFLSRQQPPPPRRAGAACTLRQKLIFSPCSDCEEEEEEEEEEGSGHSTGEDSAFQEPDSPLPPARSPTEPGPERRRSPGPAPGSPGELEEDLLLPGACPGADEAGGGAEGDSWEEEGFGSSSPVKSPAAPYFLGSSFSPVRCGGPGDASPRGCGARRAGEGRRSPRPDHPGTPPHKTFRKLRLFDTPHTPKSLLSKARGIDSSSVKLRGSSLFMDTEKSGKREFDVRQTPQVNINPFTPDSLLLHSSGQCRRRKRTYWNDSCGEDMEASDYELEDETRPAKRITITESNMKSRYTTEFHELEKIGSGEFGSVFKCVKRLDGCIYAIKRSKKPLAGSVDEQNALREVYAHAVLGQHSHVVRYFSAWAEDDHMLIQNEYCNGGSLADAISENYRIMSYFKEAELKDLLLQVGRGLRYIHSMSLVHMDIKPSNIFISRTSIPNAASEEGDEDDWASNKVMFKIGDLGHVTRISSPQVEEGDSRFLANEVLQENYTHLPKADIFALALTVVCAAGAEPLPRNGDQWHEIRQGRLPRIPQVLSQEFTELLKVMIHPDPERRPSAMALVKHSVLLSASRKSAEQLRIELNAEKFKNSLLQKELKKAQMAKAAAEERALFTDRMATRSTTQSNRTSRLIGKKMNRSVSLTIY
Outline: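 Full-length, baculovirus-expressed GST-tagged Wee1A (5 nM) was mixed with 2 nM Eu-anti-GST antibody, 30 nM kinase tracer 178 and compound (1% DMSO). Buffer was 50 mM HEPES pH 7.5, 10 mM MgCl2, 1 mM EGTA, 0.01% Brij-35, incubated 60 min at room temperature. TR-FRET 665/615 nm emission ratios from duplicates were curve-fitted.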

[3] = molecular target: T3, Myt1 kinase (CDK1 Thr14 phosphorylation in ACHN renal cell carcinoma cells) (Homo sapiens, UniProt Q99640); assay: AlphaLISA assay, Myt1 kinase target engagement (phospho-CDK1 Thr14) in ACHN cells; assay type: cell-based; details: ACHN cells (marked *); 4 h treatment
T3 construct: pCDK1 Thr14 AlphaLISA read-out
T3 sequence (Q99640 1-499): T1 sequence (Q99640 1-499)
Description: Each of an ACHN renal cell carcinoma cell line (ATCC) and a DAOY medulloblastoma cell line, and an A427 lung cancer line were cultured in Minimum Essential Medium Eagle supplemented with 10% fetal calf serum (Sigma), 1% Penicillin-Streptomycin and 10 mM HEPES buffer (HyClone). Cell cultures were kept in a humidified incubator at 37 °C and 5% CO2. Cells were routinely tested for Mycoplasma contamination.
For target engagement assessment of Myt1 kinase inhibition, quantification of Cdk1 phosphorylated on threonine 14 was detected using the AlphaLISA® SureFire® Ultra™ Human Phospho-CDK1 (Thr14) assay (Perkin Elmer). DAOY or ACHN cells were seeded into tissue culture treated 96-well plates (VWR) to a density of 10,000 or 20,000 cells per well respectively. 24 h post seeding cells were treated for 4 h with compounds at concentrations ranging from 7 to 5000 nM. Cells were washed with PBS and lysed in 50 μl AlphaLISA lysis buffer before freezing at −80 C. Ten ul of the lysate was transferred to 384 well plates and incubated with AlphaLISA donor and acceptor beads according to the manufacturer's instructions. Dose response curves and EC50 values were calculated and visualized using GraphPad Prism version 9. Target engagement for Myt1 kinase can also be measured using the same AlphaLISA assay in OVCAR3 cells, an ovarian cancer cell line. NIH:OVCAR-3 (OVCAR3) cells are cultured in RPMI-1640 medium supplemented with 0.01 mg/ml insulin, 20% FBS, 1% Penicillin-Streptomycin and 10 mM HEPES buffer. 14,000 cells per well are seeded into 96 well tissue culture plates in full medium. Twenty-four hours post seeding, cells are treated with compound for 4 hours at concentrations ranging from 0.017 nM to 1000 nM.

[4] = molecular target: T4, Wee1A kinase (CDK1 Tyr15 phosphorylation in ACHN renal cell carcinoma cells) (Homo sapiens, UniProt P30291); assay: High-content imaging of pCdk1 Y15, Wee1A kinase target engagement in ACHN cells; assay type: cell-based; details: 4 h treatment, nuclear positivity for pCdk1 Y15 vs DMSO control, read-out: CDK1 Tyr15 Phosphorylation EC50
T4 construct: pCDK1 Tyr15 immunofluorescence read-out
T4 sequence (P30291 whole entry): as above
Outline: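 ACHN cells exposed to compound for 4 h over 7–5,000 nM or 0.3–200 nM, then fixed and immunostained for pCDK1 Y15 with DAPI nuclear counterstain. The percentage of pCdk1 Y15 nucleus-positive cells relative to DMSO control was imaged per well; EC50 from dose-response curves.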

[5] = molecular target: T5, Myt1 kinase (CDK1 Thr14 phosphorylation in DAOY medulloblastoma cells) (Homo sapiens, UniProt Q99640); assay: AlphaLISA assay, Myt1 kinase target engagement (phospho-CDK1 Thr14) in DAOY cells; assay type: cell-based; details: 4 h treatment, read-out: CDK1 Thr14 Phosphorylation EC50
T5 construct: pCDK1 Thr14 AlphaLISA read-out
T5 sequence (Q99640 1-499): T1 sequence (Q99640 1-499)
Outline: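 Cells seeded at 10,000 (DAOY) or 20,000 (ACHN) per well, treated 24 h later for 4 h with compound at 7–5000 nM. Lysates analysed by AlphaLISA SureFire Ultra phospho-CDK1 (Thr14) with donor/acceptor beads; EC50 from dose-response curves.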

Row | IC50 [1] | EC50 (ACHN cells) | IC50 [2] | EC50 [3] | EC50 [4] | EC50 [5] | SMILES
1 | 20 to 100 nM | ≤ 100 nM | < 10 nM | 200 to 500 nM | < 100 nM |  | C=CCn1c(=O)c2cnc(Nc3ccc4c(cnn4C)c3)nc2n1-c1cccc(OC2CCN(CCC)CC2)n1 [Compound 322, 2-allyl-6-(1-methyl-1H-indazol-5-ylamino)-1-[6-(1-propyl-4-piperidyloxy)-2-pyridyl]-1,2-dihydro-3H-1,2,5,7-tetraazainden-3-one]
2 | < 20 nM |  | < 10 nM | < 200 nM | < 100 nM |  | C=CCn1c(=O)c2cnc(Nc3ccc(OCCF)nc3)nc2n1-c1cccc(OC2CCN(C)CC2)n1 [Compound 399, 2-allyl-6-((6-(2-fluoroethoxy)pyridin-3-yl)amino)-1-(6-((1-methylpiperidin-4-yl)oxy)pyridin-2-yl)-1,2-dihydro-3H-pyrazolo[3,4-d]pyrimidin-3-one]
3 | < 20 nM |  | < 10 nM | > 1000 nM | < 100 nM |  | C=CCn1c(=O)c2cnc(Nc3ccc4nn(C(C)(C)C)cc4c3)nc2n1-c1cccc(OC2CCNCC2)n1 [Compound 395, 2-allyl-6-((2-(tert-butyl)-2H-indazol-5-yl)amino)-1-(6-(piperidin-4-yloxy)pyridin-2-yl)-1,2-dihydro-3H-pyrazolo[3,4-d]pyrimidin-3-one]
4 | 20 to 100 nM |  | < 10 nM | 200 to 500 nM | < 100 nM |  | C=CCn1c(=O)c2cnc(Nc3ccc4ccncc4c3)nc2n1-c1cccc(OC2CCN(C)CC2)n1 [Compound 326, 2-allyl-6-(7-isoquinolylamino)-1-[6-(1-methyl-4-piperidyloxy)-2-pyridyl]-1,2-dihydro-3H-1,2,5,7-tetraazainden-3-one]
5 | 20 to 100 nM |  | < 10 nM | 500 to 1000 nM |  |  | [2H]C([2H])([2H])N1CCC(Oc2nccc(-n3c4nc(Nc5ccc6c(cnn6C)c5)ncc4c(=O)n3CC=C)n2)CC1 [Compound 383, 2-allyl-6-(1-methyl-1H-indazol-5-ylamino)-1-(2-{1-[(^2H3)methyl]-4-piperidyloxy}-4-pyrimidinyl)-1,2-dihydro-3H-1,2,5,7-tetraazainden-3-one]
6 | 20 to 100 nM |  | < 10 nM | < 200 nM | < 100 nM |  | C=CCn1c(=O)c2cnc(Nc3ccc4cnn(C)c4c3)nc2n1-c1cccc(OC2CCN(C)CC2)n1 [Compound 389, 2-allyl-6-((1-methyl-1H-indazol-6-yl)amino)-1-(6-((1-methylpiperidin-4-yl)oxy)pyridin-2-yl)-1,2-dihydro-3H-pyrazolo[3,4-d]pyrimidin-3-one]
7 | 20 to 100 nM |  | < 10 nM | 500 to 1000 nM | < 100 nM |  | C=CCn1c(=O)c2cnc(Nc3ccc4c(cnn4C)c3)nc2n1-c1cccc(OC2CCCN(C)CC2)n1 (single isomer, unassigned) [Compound 374]
8 | < 20 nM |  | < 10 nM | < 200 nM | < 100 nM |  | C=CCn1c(=O)c2cnc(Nc3ccc4c(cnn4C(C)C)c3)nc2n1-c1ccnc(OC2CCN(C)CC2)n1 [Compound 401, 2-allyl-6-((1-isopropyl-1H-indazol-5-yl)amino)-1-(2-((1-methylpiperidin-4-yl)oxy)pyrimidin-4-yl)-1,2-dihydro-3H-pyrazolo[3,4-d]pyrimidin-3-one]
9 | < 20 nM |  | < 10 nM | < 200 nM | < 100 nM |  | C=CCn1c(=O)c2cnc(Nc3cnc4c(cnn4C(C)C)c3)nc2n1-c1cccc(OC2CCN(C)CC2)n1 [Compound 406, 2-allyl-6-((1-isopropyl-1H-pyrazolo[3,4-b]pyridin-5-yl)amino)-1-(6-((1-methylpiperidin-4-yl)oxy)pyridin-2-yl)-1,2-dihydro-3H-pyrazolo[3,4-d]pyrimidin-3-one]
10 | < 20 nM |  | < 10 nM | 200 to 500 nM | < 100 nM |  | C=CCn1c(=O)c2cnc(Nc3ccc4[nH]nc(C)c4c3)nc2n1-c1cccc(OC2CCN(C)CC2)n1 [Compound 355, 2-allyl-6-((3-methyl-1H-indazol-5-yl)amino)-1-(6-((1-methylpiperidin-4-yl)oxy)pyridin-2-yl)-1,2-dihydro-3H-pyrazolo[3,4-d]pyrimidin-3-one]
11 | < 20 nM |  | < 10 nM | 200 to 500 nM | < 100 nM |  | C=CCn1c(=O)c2cnc(Nc3ccc(Br)cc3)nc2n1-c1cccc(OC2CCN(C)CC2)n1 [Compound 370, 2-allyl-6-(p-bromophenylamino)-1-[6-(1-methyl-4-piperidyloxy)-2-pyridyl]-1,2-dihydro-3H-1,2,5,7-tetraazainden-3-one]
12 |  | ≤ 100 nM | < 10 nM | 200 to 500 nM | < 100 nM |  | C=CCn1c(=O)c2cnc(Nc3ccc4c(cnn4C)c3)nc2n1-c1cccc(OC2CCCN(C)CC2)n1 (centres unmarked) [Compound 361]
13 | < 20 nM | ≤ 100 nM |  | < 200 nM | < 100 nM |  | [2H]C([2H])([2H])N1CCC(Oc2cccc(-n3c4nc(Nc5ccc6c(cnn6C(C)C)c5)ncc4c(=O)n3CC=C)n2)CC1 [Compound 354, 2-allyl-6-(1-isopropyl-1H-indazol-5-ylamino)-1-(6-{1-[(^2H3)methyl]-4-piperidyloxy}-2-pyridyl)-1,2-dihydro-3H-1,2,5,7-tetraazainden-3-one]
14 | 20 to 100 nM | 100 to 500 nM | < 10 nM |  | < 100 nM | 200 to 500 nM | C=CCn1c(=O)c2cnc(Nc3ccc(C#N)c(C)c3)nc2n1-c1cccc(OC2CCNCC2)n1 [Compound 293, 5-{2-allyl-3-oxo-1-[6-(4-piperidyloxy)-2-pyridyl]-1,2-dihydro-3H-1,2,5,7-tetraazainden-6-ylamino}-2-toluonitrile]
15 | 20 to 100 nM | ≤ 100 nM | < 10 nM |  | < 100 nM | > 1000 nM | C=CCn1c(=O)c2cnc(Nc3ccc(C#N)c(C)c3)nc2n1-c1cccc(OC2CCN(C)CC2)n1 [Compound 204, 2-methyl-4-[(1-{6-[(1-methylpiperidin-4-yl)oxy]pyridin-2-yl}-3-oxo-2-(prop-2-en-1-yl)-1H,2H,3H-pyrazolo[3,4-d]pyrimidin-6-yl)amino]benzonitrile]
